For experiment [1], the target named is T1, PCSK9Δhelix (Homo sapiens, UniProt Q8NBP7).
T1 construct: Human PCSK9 construct M1-Q692 with an engineered TEV site (residue deletion Y166, R167); made in house; host or cells: CHO
The experiment in a line: PCSK9Δhelix/Ab20 TR-FRET binding assay. Conditions: for IC50: TR-FRET, read-out: PCSK9Δhelix/Ab20 IC50.
Description: (§1) The former was based on a TF-FRET assay to measure the association of the EGF(A) domain of the LDLR to PCSK9 (“PCSK9/EGF(A) binding assay”) whilst the latter was based on a TR-FRET assay to measure binding of Ab20 to PCSK9Δhelix (“PCSK9Δhelix/Ab20 binding assay”).
(§2) The ability of compounds to inhibit binding to PCSK9 was evaluated with a panel of time-resolved fluorescence resonance energy transfer (TR-FRET) binding assays. […] The PCSK9Δhelix/Ab20 binding assay evaluated the ability of compounds to compete with Ab20 for binding to the N-terminal groove region in a His-tagged, PCSK9Δhelix construct. […] Signal generation in the PCSK9 binding assays was dependent upon the binding interaction to bring into close proximity the His-tag on the PCSK9 and the Fc-tag on the ligand. Anti-His-APC was bound to the His-tag, and anti-Fc-europium was bound to the Fc-tag. When these two antibodies were in close proximity and were irradiated with light at 340 nm, the europium was excited and emitted energy at 615 nm. This energy was taken up by the APC and was emitted as light at 665 nm. Compounds that competed with the ligand reduced the energy transfer and thus the emission at 665 nm. In the His-EGFA-Fc molecule in the counterscreen, the two tags were always in close proximity, thus any reduction in emission at 665 nm was due to interference with the detection system.
(§3) Compounds were solubilized and dilutions were prepared in DMSO. […] The plate was centrifuged to mix the well contents and allowed to incubate for 30 min. […] The TR-FRET signal was read on a ViewLux reader (PerkinElmer) with excitation at 340 nm and emission at 615 and 665 nm with a 50-μs time delay between excitation and measurement of emission. The TR-FRET ratio was calculated as the fluorescence emission at 665 nm divided by the fluorescence emission at 615 nm. The normalized TR-FRET ratios were plotted as a function of the compound concentrations, and the IC50 values were determined using a 4-parameter logistic regression.
(§4) In black 1536-well assay plates (MaKO, Aurora® Microplates, Whitefish, Mont.), 40 nL of peptide in DMSO were preincubated with 2 μL His-tagged PCSK9 plus anti-His-allophycocyanin in assay buffer (50 mM Tris-HCl, pH 7.5, 150 mM NaCl, 2 mM CaCl2, 0.01% Tween®-20, 0.1% bovine gamma globulins, and protease inhibitor cocktail) for 30 min. Then 2 μL of Fc-tagged ligand and anti-Fc-europium in assay buffer were added and allowed to incubate for 2 h.

Experiment [2] deals with His-EGF(A)-Fc. The experiment in a line: His-EGF(A)-Fc TR-FRET counterscreen. (TR-FRET usually uses a lanthanide donor and a delayed reading to cut background.)
Description: as §1, §2, §3, §4
Experiment [3] addresses PCSK9 (Homo sapiens, UniProt Q8NBP7). As to the kind of experiment: PCSK9/EGF(A) TR-FRET binding assay. Conditions: TR-FRET, read-out: PCSK9/EGF(A) IC50.
Description: as §1, §2, §3, §4
The mark [4] stands for this setting: Table 8D, disulfide-cyclized extension peptides.
The mark [5] stands for this setting: TR-FRET counterscreen, Table 8D, * = some inhibition at highest concentrations, not sufficient to fit an IC50.
[6] abbreviates: TR-FRET counterscreen, Table 8E, additional compounds.

Where two headings read alike, the source gives them in different places. Bridge positions count the residues as written; N and C are the ends. Square brackets hold non-standard residues; d marks the D form. Peptide text beside a SMILES is read from it. * marks the point of attachment. Trp(6-F) = N[C@@H](Cc1c[nH]c2cc(F)ccc12)C(=O)O; hArg = N=C(N)NCCCC[C@H](N)C(=O)O; Pentanoyl = CCCCC(=O)*; Ahx = NCCCCCC(=O)O

T1 sequence (Q8NBP7 with tags, fused parts or gaps limits assumed): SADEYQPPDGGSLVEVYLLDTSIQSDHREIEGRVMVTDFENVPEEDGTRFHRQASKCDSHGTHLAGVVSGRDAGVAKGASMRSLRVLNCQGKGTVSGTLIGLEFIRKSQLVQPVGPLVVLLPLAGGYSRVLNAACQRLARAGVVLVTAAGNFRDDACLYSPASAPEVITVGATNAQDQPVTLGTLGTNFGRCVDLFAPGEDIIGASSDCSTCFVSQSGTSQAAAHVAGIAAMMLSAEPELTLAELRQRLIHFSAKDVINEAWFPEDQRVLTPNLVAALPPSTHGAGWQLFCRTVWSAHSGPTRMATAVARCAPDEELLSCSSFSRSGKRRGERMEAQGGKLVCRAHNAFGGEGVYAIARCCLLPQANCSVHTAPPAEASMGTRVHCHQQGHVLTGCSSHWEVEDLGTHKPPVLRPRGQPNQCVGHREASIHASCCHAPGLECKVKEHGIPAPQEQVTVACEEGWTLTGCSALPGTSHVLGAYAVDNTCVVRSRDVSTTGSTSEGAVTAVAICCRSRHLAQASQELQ
T1 sequence (Q8NBP7 31-152 partner limits assumed): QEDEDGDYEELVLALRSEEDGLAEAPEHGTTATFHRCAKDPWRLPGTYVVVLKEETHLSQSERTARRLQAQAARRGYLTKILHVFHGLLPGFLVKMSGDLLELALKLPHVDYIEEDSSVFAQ
Sequence of PCSK9 (Q8NBP7 153-692): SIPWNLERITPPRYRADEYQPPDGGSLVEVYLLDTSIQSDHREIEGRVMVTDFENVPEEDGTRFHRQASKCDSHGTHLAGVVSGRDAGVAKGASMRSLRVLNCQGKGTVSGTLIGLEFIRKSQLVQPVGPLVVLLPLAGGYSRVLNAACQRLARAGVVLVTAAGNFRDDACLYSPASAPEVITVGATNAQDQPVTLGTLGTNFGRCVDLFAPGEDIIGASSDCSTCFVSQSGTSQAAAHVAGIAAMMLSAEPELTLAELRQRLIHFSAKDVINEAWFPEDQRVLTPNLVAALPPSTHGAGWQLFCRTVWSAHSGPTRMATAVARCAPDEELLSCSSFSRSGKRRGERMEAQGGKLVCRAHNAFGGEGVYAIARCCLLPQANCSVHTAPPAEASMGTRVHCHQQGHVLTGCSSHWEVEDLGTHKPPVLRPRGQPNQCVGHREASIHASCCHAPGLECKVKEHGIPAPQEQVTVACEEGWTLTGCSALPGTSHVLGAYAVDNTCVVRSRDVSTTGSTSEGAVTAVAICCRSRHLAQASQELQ
Sequence of PCSK9 (Q8NBP7 31-152 partner limits assumed): as the sequence (Q8NBP7 31-152 partner limits assumed) above

Turning to `CC[C@H](C)[C@@H]1NC(=O)[C@H](CCCNC(=N)N)NC(=O)[C@H](CCC(N)=O)NC(=O)[C@H](CC(C)C)NC(=O)[C@H](CC(N)=O)NC(=O)[C@H](Cc2c[nH]c3ccccc23)NC(=O)[C@@H]2CCCN2C(=O)[C@H](CC(C)C)NC(=O)[C@H](CCCNC(=N)N)NC(=O)[C@@H](NC(C)=O)CSSC[C@@H](C(N)=O)NC(=O)CCCCCNC1=O` [Compound 116] (Ac-CRLPWNLQRI[Ahx]C-NH2; disulfide 1-12), the “inhibition in the PCSK9Δhelix/Ab20 binding assay” value in experiment [1] is reported as “weak but detectable inhibition”. Further, the values for the IC50 in experiment [1] (setting [4]), in experiment [2] (setting [5]) and in experiment [3] (setting [4]) were 31.6 µM, above 50 µM and above 50 µM, respectively.
With `CCCCC(=O)N[C@@H](Cc1c[nH]c2ccccc12)C(=O)N[C@@H](CC(N)=O)C(=O)N[C@@H](CC(C)C)C(=O)N[C@H](C(=O)N[C@@H](CCCCNC(=N)N)C(=O)N[C@H](C(=O)NCC(=O)N[C@@H](CC(C)C)C(=O)N[C@@H](CC(C)C)C(=O)N[C@@H](CCCNC(=N)N)C(=O)O)[C@@H](C)CC)C(C)C` [Compound 195, n-BuC(O)-WNLV(homoR)IGLLR] (Pentanoyl-WNLV[hArg]IGLLR-OH), the IC50 in experiment [1] (Table 8E, additional compounds) turned out to be 1.7 µM; in experiment [2] (setting [6]), 45 µM; in experiment [3] (Table 8E, additional compounds), 22 µM.
Turning to Ac-DLMPWALVRIGLLR-NH2 [Compound 62], the IC50 in experiment [1] (Example 7) was above 49.5 µM; in experiment [2] (counterscreen, Example 7) it was above 50 µM; in experiment [3] (Example 7), above 50 µM.
`CC(=O)N[C@H]1CSSC[C@@H](C(N)=O)NC(=O)[C@@H]2CCCN2C(=O)[C@H](CC(C)C)NC(=O)CNC(=O)[C@H](C)NC(=O)[C@H](CCCNC(=N)N)NC(=O)[C@H](CCC(N)=O)NC(=O)[C@H](CC(C)C)NC(=O)[C@H](CC(N)=O)NC(=O)[C@H](Cc2c[nH]c3ccccc23)NC(=O)[C@@H]2CCCN2C(=O)[C@H](CC(C)C)NC(=O)[C@H](CCCNC(=N)N)NC1=O` [Compound 71] (Ac-CRLPWNLQRAGLPC-NH2; disulfide 1-14): the figures for the IC50 in experiment [1] (setting [4]), in experiment [2] (setting [5]) and in experiment [3] (setting [4]) were 49.5 µM, above 50 µM and above 50 µM, respectively.
Turning to `CCCCC(=O)N[C@@H](Cc1c[nH]c2cc(F)ccc12)C(=O)N[C@@H](CC(N)=O)C(=O)N[C@@H](CC(C)C)C(=O)N[C@H](C(=O)N[C@@H](CCCNC(=N)N)C(=O)N[C@H](C(=O)NCC(=O)N[C@@H](CC(C)C)C(=O)N[C@H](C(=O)N[C@@H](CCCNC(=N)N)C(N)=O)[C@@H](C)O)[C@@H](C)CC)C(C)C` [Compound 174] (Pentanoyl-[Trp(6-F)]NLVRIGLTR-NH2), the IC50 in experiment [1] (Table 8E, additional compounds) is 6.2 µM; in experiment [2] (setting [6]), at least 50 µM; in experiment [3] (Table 8E, additional compounds) it was at least 50 µM.
For the compound `CC[C@H](C)[C@@H]1NC(=O)[C@H](CCCNC(=N)N)NC(=O)[C@H](CCC(N)=O)NC(=O)[C@H](CC(C)C)NC(=O)[C@H](CC(N)=O)NC(=O)[C@H](Cc2c[nH]c3ccccc23)NC(=O)[C@@H]2CCCN2C(=O)[C@H](C)NC(=O)[C@H](CCCNC(=N)N)NC(=O)[C@@H](NC(C)=O)CSSC[C@@H](C(N)=O)NC(=O)[C@@H]2CCCN2C(=O)[C@H](CC(C)C)NC(=O)CNC1=O` [Compound 78] (Ac-CRAPWNLQRIGLPC-NH2; disulfide 1-14), the results for the IC50 in experiment [1] (setting [4]), in experiment [2] (setting [5]) and in experiment [3] (setting [4]) were 5.56 µM, above 50 µM and above 50 µM, respectively.
For `CC[C@H](C)[C@@H]1NC(=O)[C@H](CCCNC(=N)N)NC(=O)[C@H](CCC(N)=O)NC(=O)[C@H](CC(C)C)NC(=O)[C@H](CC(N)=O)NC(=O)[C@@H](Cc2c[nH]c3ccccc23)NC(=O)[C@@H]2CCCN2C(=O)[C@H](CC(C)C)NC(=O)[C@H](CCCNC(=N)N)NC(=O)[C@@H](NC(C)=O)CSSC[C@@H](C(N)=O)NC(=O)[C@@H]2CCCN2C(=O)[C@H](CC(C)C)NC(=O)CNC1=O` [Compound 106] (Ac-CRLP[dW]NLQRIGLPC-NH2; disulfide 1-14), the IC50 in experiment [1] (setting [4]), in experiment [2] (setting [5]) and in experiment [3] (setting [4]) was above 50 µM in each case.
Regarding `CC[C@H](C)[C@@H]1NC(=O)[C@H](CCCNC(=N)N)NC(=O)[C@H](CCCCN)NC(=O)[C@H](CC(C)C)NC(=O)[C@H](CC(N)=O)NC(=O)[C@H](Cc2c[nH]c3ccccc23)NC(=O)[C@H](CC(C)C)NC(=O)[C@@H](NC(=O)[C@H](Cc2c[nH]c3ccccc23)NC(C)=O)CSSC[C@@H](C(=O)N[C@@H](CCC(=O)O)C(=O)N[C@@H](Cc2ccc(O)cc2)C(N)=O)NC(=O)[C@H](CCC(N)=O)NC(=O)[C@H](CO)NC(=O)CNC1=O` [Compound 65] (Ac-WCLWNLKRIGSQCEY-NH2; disulfide 2-13), the values for the IC50 in experiment [1] (setting [4]), in experiment [2] (setting [5]) and in experiment [3] (setting [4]) were 7.1 µM, above 50 µM and above 50 µM, respectively.
Consider `CCCCC(=O)N[C@@H](Cc1c[nH]c2ccccc12)C(=O)N[C@@H](CC(N)=O)C(=O)N[C@@H](CC(C)C)C(=O)N[C@H](C(=O)N[C@@H](CCCNC(=N)N)C(=O)N[C@H](C(=O)NCC(=O)N[C@@H](CC(C)C)C(=O)N[C@@H](CC(C)C)C(=O)N[C@@H](CCCNC(=N)N)C(N)=O)[C@@H](C)CC)C(C)C` [Compound 111] (Pentanoyl-WNLVRIGLLR-NH2), for which the IC50 in experiment [1] (Example 7) was 4.9 µM; in experiment [2] (counterscreen, Example 7), above 50 µM; in experiment [3] (Example 7), above 50 µM.
Take `CC[C@H](C)[C@@H]1NC(=O)[C@H](CCCNC(=N)N)NC(=O)[C@H](CCC(N)=O)NC(=O)[C@H](CC(C)C)NC(=O)[C@H](CC(N)=O)NC(=O)[C@H](Cc2c[nH]c3ccccc23)NC(=O)[C@@H]2CCCN2C(=O)[C@H](CC(C)C)NC(=O)[C@@H](CCCNC(=N)N)NC(=O)[C@@H](NC(C)=O)CSSC[C@@H](C(N)=O)NC(=O)[C@@H]2CCCN2C(=O)[C@H](CC(C)C)NC(=O)CNC1=O` [Compound 109] (Ac-C[dR]LPWNLQRIGLPC-NH2; disulfide 1-14): the IC50 in experiment [1] (setting [4]) is 1.67 µM; in experiment [2] (setting [5]), above 50 µM; in experiment [3] (setting [4]) it was above 50 µM.
Take `CC[C@H](C)[C@@H]1NC(=O)[C@H](CCCNC(=N)N)NC(=O)[C@H](CCC(N)=O)NC(=O)[C@H](CC(C)C)NC(=O)[C@H](CC(N)=O)NC(=O)[C@H](Cc2c[nH]c3ccccc23)NC(=O)[C@@H]2CCCN2C(=O)[C@H](CC(C)C)NC(=O)[C@H](CCCNC(=N)N)NC(=O)[C@@H](NC(=O)CNC(=O)[C@H](CO)NC(C)=O)CSSC[C@@H](C(N)=O)NC(=O)[C@@H]2CCCN2C(=O)[C@H](CC(C)C)NC(=O)CNC1=O` [Compound 30] (Ac-SGCRLPWNLQRIGLPC-NH2; disulfide 3-16): the IC50 in experiment [1] (setting [4]) was 0.95 µM; in experiment [2] (setting [5]), above 50 µM; in experiment [3] (setting [4]) it was above 50 µM.
On to `CC[C@H](C)[C@@H]1NC(=O)[C@H](CCCNC(=N)N)NC(=O)[C@H](CCCCN)NC(=O)[C@H](CC(C)C)NC(=O)[C@H](CC(N)=O)NC(=O)[C@H](Cc2c[nH]c3ccccc23)NC(=O)[C@H](CC(C)C)NC(=O)[C@@H](NC(=O)[C@@H](N)Cc2c[nH]c3ccccc23)CSSC[C@@H](C(=O)N[C@@H](Cc2c[nH]c3ccccc23)C(=O)N[C@@H](Cc2ccccc2)C(N)=O)NC(=O)[C@H](CCC(N)=O)NC(=O)[C@H](CO)NC(=O)CNC1=O` [Compound 89] (H-WCLWNLKRIGSQCWF-NH2; disulfide 2-13), for which the IC50 in experiment [1] (setting [4]) came out at 2.98 µM; in experiment [2] (setting [5]), 38.4 µM; in experiment [3] (setting [4]), 6.9 µM.
Take Ac-DLMPWNLVRIGLL-NH2 [Compound 46]: the IC50 in experiment [1] (Example 7) was 14 µM; in experiment [2] (counterscreen, Example 7) it was above 50 µM; in experiment [3] (Example 7) it was above 50 µM.

The values above are taken from US11034725B2, “Compositions and methods for treating cardiovascular disease” (Genentech, Inc., priority 2016, dated 2021).
